Measured values taken from PubChem BioAssay (NCI).
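Test compounds were applied to cells in 96-well plates for 48 hours at 5 doses. GI50: concentration for 50% inhibition of growth. Definition used: TGI = concentration required for complete inhibition of growth.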

How the values were obtained:
Test in all cases: NCI tumour cell line growth inhibition, 48 h; in the data active = GI50 below about 0.43 µM; inactive = the rest
[1] = test system: OVCAR-4 ovarian
[2] = test system: MCF7 breast
[3] = test system: OVCAR-8 ovarian
[4] = test system: SK-MEL-28 melanoma
[5] = test system: SNB-75 CNS
[6] = test system: ACHN renal
[7] = test system: UACC-62 melanoma
[8] = test system: HCT-15 colon
[9] = test system: PC-3 prostate
[10] = test system: SR leukemia
[11] = test system: LOX IMVI melanoma
[12] = test system: NCI-H23 lung
[13] = test system: COLO 205 colon
[14] = test system: MALME-3M melanoma
[15] = test system: U251 CNS
[16] = test system: SN12C renal
[17] = test system: SF-268 CNS
[18] = test system: BT-549 breast
[19] = test system: EKVX NSCLC
[20] = test system: DU-145 prostate
[21] = test system: SK-OV-3 ovarian
[22] = test system: NCI-H226 lung
[23] = test system: NCI-H522 lung
[24] = test system: HT29 colon
[25] = test system: SK-MEL-5 melanoma
[26] = test system: M14 melanoma
[27] = test system: NCI/ADR-RES ovarian
[28] = test system: T-47D breast
[29] = test system: K-562 leukemia
[30] = test system: HCT-116 colon
[31] = test system: SF-295 CNS
[32] = test system: MDA-MB-435
[33] = test system: HOP-92 NSCLC
[34] = test system: MOLT-4 leukemia
[35] = test system: CCRF-CEM leukemia
[36] = test system: KM12 colon
[37] = test system: SK-MEL-2 melanoma
[38] = test system: RPMI-8226 leukemia
[39] = test system: HCC-2998 colon
[40] = test system: UO-31 renal
[41] = test system: HS 578T breast
[42] = test system: SF-539 CNS
[43] = test system: 786-0 renal
[44] = test system: UACC-257 melanoma
[45] = test system: IGROV1 ovarian
[46] = test system: OVCAR-3 ovarian
[47] = test system: NCI-H460 lung
[48] = test system: HL-60(TB) leukemia
[49] = test system: RXF 393 renal
[50] = test system: TK-10 renal
[51] = test system: A549 NSCLC
[52] = test system: CAKI-1 renal
[53] = test system: OVCAR-5 ovarian
[54] = test system: A498 renal
[55] = test system: SNB-19 CNS
[56] = test system: MDA-MB-231 breast
[57] = test system: HOP-62 NSCLC
[58] = test system: SW-620 colon

COc1ccc(C(=O)c2cc(OC)c(OC)c(OC)c2)cc1OC(=O)C(Cl)(Cl)Cl
23200 nM: TGI [13]
7180 nM: TGI [54]
< 19.1 nM: TGI [48]
inactive: GI50 [4] 25100 nM | GI50 [7] 628 nM | GI50 [13] 1310 nM | GI50 [19] 3160 nM | GI50 [22] 15400 nM | GI50 [24] 2000 nM | GI50 [28] 2400 nM | GI50 [33] 470 nM | GI50 [37] 85300 nM | GI50 [40] 540 nM | GI50 [43] 587 nM | GI50 [44] > 100000 nM | GI50 [50] 34100 nM | GI50 [53] 4490 nM | GI50 [54] 1970 nM
> 50200 nM: TGI [34]
active: GI50 [1] 122 nM | GI50 [2] 27.2 nM | GI50 [3] 44.1 nM | GI50 [5] < 10 nM | GI50 [6] 32.9 nM | GI50 [8] < 10 nM | GI50 [9] < 10.6 nM | GI50 [10] < 10 nM | GI50 [11] < 13.4 nM | GI50 [12] 62.7 nM | GI50 [15] 38.4 nM | GI50 [16] 57.9 nM | GI50 [17] 73.6 nM | GI50 [18] 11.8 nM | GI50 [20] 28.4 nM | GI50 [21] 76.2 nM | GI50 [23] 16.9 nM | GI50 [25] 32.5 nM | GI50 [26] < 10 nM | GI50 [27] < 11 nM | GI50 [29] < 10 nM | GI50 [30] 28.4 nM | GI50 [31] 79.2 nM | GI50 [32] < 10 nM | GI50 [34] < 19.9 nM | GI50 [35] < 18.3 nM | GI50 [36] < 10 nM | GI50 [38] < 20.2 nM | GI50 [39] 46.2 nM | GI50 [41] 18 nM | GI50 [42] 13.4 nM | GI50 [45] 312 nM | GI50 [46] 27.8 nM | GI50 [47] 38.8 nM | GI50 [48] < 10 nM | GI50 [49] 33.7 nM | GI50 [51] 154 nM | GI50 [52] 140 nM | GI50 [55] 45.2 nM | GI50 [56] 158 nM | GI50 [57] 83 nM | GI50 [58] < 10 nM
880 nM: TGI [18]
56 nM: TGI [42]
329 nM: TGI [25]
27200 nM: TGI [38]
> 100000 nM: TGI [1] | TGI [2] | TGI [3] | TGI [4] | TGI [5] | TGI [6] | TGI [7] | TGI [8] | TGI [9] | TGI [10] | TGI [11] | TGI [12] | TGI [14] | TGI [15] | TGI [16] | TGI [17] | TGI [19] | TGI [20] | TGI [21] | TGI [22] | TGI [23] | TGI [24] | TGI [26] | TGI [27] | TGI [28] | TGI [29] | TGI [30] | TGI [31] | TGI [33] | TGI [35] | TGI [36] | TGI [37] | TGI [39] | TGI [40] | TGI [41] | TGI [43] | TGI [44] | TGI [45] | TGI [46] | TGI [47] | TGI [49] | TGI [50] | TGI [51] | TGI [52] | TGI [53] | TGI [55] | TGI [56] | TGI [57] | TGI [58]
